{
  "source": "patent US20020077465A1",
  "about": "“ADAM polynucleotides, polypeptides, and antibodies” (priority 2000, published 2002)",
  "origin": "cited, not measured here",
  "molecules": {"B1": {"name": "METH1 polypeptides: metalloprotease thrombospondin polypeptides encoded by the human METH1 gene (WO99/37660) (protein, UniProt Q9UHI8 253-967, looked up)", "A disintegrin and …": "FVSSHRYVETMLVADQSMAEFHGSGLKHYLLTLFSVAARLYKHPSIRNSVSLVVVKILVIHDEQKGPEVTSNAALTLRNFCNWQKQHNPPSDRDAEHYDTAILFTRQDLCGSQTCDTLGMADVGTVCDPSRSCSVIEDDGLQAAFTTAHELGHVFNMPHDDAKQCASLNGVNQDSHMMASMLSNLDHSQPWSPCSAYMITSFLDNGHGECLMDKPQNPIQLPGDLPGTSYDANRQCQFTFGEDSKHCPDAASTCSTLWCTGTSGGVLVCQTKHFPWADGTSCGEGKWCINGKCVNKTDRKHFDTPFHGSWGMWGPWGDCSRTCGGGVQYTMRECDNPVPKNGGKYCEGKRVRYRSCNLEDCPDNNGKTFREEQCEAHNEFSKASFGSGPAVEWIPKYAGVSPKDRCKLICQAKGIGYFFVLQPKVVDGTPCSPDSTSVCVQGQCVKAGCDRIIDSKKKFDKCGVCGGNGSTCKKISGSVTSAKPGYHDIITIPTGATNIEVKQRNQRGSRNNGSFLAIKAADGTYILNGDYTLSTLEQDIMYKGVVLRYSGSSAALERIRSFSPLKEPLTIQVLTVGNALRPKIKYTYFVKKKKESFNAIPTFSAWVIEEWGECSKSCELGWQRRLVECRDINGQPASECAKEVKPASTRPCADHPCPQWQLGEWSSCSKTCGKGYKKRSLKCLSHDGGVLSHESCDPLKKPKHFIDFCTMAECS"}},
  "key": {"[1]": {"test_system": "protease inhibitor-resistant viruses"}, "[2]": {"test_system": "viruses containing the K103N mutation"}, "MMP-1": {"molecular_target": "T1, MMP-1 (Homo sapiens, UniProt P03956)", "T1 sequence (P03956 100-469)": "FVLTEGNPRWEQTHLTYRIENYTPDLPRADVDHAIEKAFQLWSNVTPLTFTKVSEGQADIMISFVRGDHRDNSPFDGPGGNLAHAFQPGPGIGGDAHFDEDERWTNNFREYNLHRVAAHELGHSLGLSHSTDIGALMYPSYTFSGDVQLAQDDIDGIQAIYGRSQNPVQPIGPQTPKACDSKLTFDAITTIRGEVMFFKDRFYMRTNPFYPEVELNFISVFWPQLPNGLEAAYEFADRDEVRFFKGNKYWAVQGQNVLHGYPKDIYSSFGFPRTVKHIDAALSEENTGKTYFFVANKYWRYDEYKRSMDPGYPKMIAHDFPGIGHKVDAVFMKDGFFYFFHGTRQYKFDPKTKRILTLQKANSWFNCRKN", "conditions": "read-out: IC50 against MMP-1"}, "MMP-8": {"molecular_target": "MMP-8 (Homo sapiens, UniProt P22894)", "sequence (P22894 101-467, species assumed)": "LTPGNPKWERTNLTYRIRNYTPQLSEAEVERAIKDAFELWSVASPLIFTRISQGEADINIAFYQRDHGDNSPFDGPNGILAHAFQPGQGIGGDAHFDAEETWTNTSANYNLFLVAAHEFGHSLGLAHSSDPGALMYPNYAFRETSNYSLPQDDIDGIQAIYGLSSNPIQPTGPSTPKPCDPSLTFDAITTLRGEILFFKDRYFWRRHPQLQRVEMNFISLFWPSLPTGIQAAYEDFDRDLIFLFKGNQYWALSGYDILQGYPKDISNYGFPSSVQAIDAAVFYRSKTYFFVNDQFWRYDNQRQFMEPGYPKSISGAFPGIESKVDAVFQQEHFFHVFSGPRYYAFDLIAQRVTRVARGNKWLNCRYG", "conditions": "read-out: IC50 against MMP-8"}, "MMP-9": {"molecular_target": "MMP-9 (Homo sapiens, UniProt P14780)", "sequence (P14780 94-707, species assumed)": "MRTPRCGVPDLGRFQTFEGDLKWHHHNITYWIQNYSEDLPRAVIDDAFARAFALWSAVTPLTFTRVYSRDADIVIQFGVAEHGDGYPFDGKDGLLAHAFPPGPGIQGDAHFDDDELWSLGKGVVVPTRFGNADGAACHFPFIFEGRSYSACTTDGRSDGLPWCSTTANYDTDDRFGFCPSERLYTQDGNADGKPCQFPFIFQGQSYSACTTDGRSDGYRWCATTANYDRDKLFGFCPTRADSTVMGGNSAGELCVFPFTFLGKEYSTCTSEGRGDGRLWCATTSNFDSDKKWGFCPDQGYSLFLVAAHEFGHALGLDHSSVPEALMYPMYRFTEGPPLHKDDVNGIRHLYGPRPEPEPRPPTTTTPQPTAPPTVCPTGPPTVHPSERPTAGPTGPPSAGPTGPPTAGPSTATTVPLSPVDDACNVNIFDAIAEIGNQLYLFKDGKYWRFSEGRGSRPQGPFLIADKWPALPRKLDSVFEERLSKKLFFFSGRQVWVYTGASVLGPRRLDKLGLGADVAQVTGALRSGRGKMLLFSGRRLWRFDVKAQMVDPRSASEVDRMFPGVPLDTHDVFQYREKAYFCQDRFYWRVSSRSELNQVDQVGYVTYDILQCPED", "conditions": "read-out: IC50 against MMP-9"}, "MMP-3": {"molecular_target": "MMP-3 (Homo sapiens, UniProt P08254)", "sequence (P08254 100-477, species assumed)": "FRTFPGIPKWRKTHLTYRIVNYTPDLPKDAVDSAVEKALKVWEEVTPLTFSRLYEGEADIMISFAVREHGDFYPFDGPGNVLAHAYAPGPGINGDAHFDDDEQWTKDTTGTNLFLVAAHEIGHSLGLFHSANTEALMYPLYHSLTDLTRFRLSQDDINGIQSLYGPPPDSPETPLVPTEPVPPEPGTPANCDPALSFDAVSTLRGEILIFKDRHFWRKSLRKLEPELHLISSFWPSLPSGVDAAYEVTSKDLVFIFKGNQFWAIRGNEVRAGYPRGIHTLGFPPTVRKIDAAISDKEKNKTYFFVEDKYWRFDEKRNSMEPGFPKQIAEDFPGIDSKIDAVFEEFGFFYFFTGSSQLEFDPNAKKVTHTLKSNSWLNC", "conditions": "read-out: IC50 against MMP-3"}, "[3]": {"test_system": "lamivudine-resistant isolates", "conditions": "a substantial proportion of lamivudine-resistant isolates"}, "[4]": {"test_system": "human metastatic melanoma (M24 cells)"}, "M24 cells": {"test_system": "M24 cells", "conditions": "murine metastasis model"}, "angiogenesis": {"test_system": "angiogenesis", "conditions": "both in vitro and in vivo"}},
  "note": "Where a SMILES comes first, the peptide text is derived from it. [ ]: non-standard residue; d: D form. The star is where a group is joined. 4Abz = Nc1ccc(C(=O)O)cc1; NHOH = ON*",
  "data": [
    {"molecule": "Cc1ccccc1CNC(=O)[C@H]1N(C(=O)[C@@H](O)[C@H](Cc2ccccc2)NC(=O)c2cccc(O)c2C)CSC1(C)C", "note": "[AG-1776]", "values": [
      {"measurement": "in vitro activity against protease inhibitor-resistant viruses", "setting": "[1]", "result": "in vitro activity"}
    ]},
    {"molecule": "Nc1nc(=O)n([C@@H]2CS[C@H](CO)O2)cc1F", "note": "[COVIRACIL, emtricitabine]", "values": [
      {"measurement": "greater activity in vitro than lamivudine (3TC)", "setting": "HIV; in vitro, relative to lamivudine (3TC)", "result": "3- to 10 fold"}
    ]},
    {"molecule": "Nc1nc(=O)n([C@H]2C=C[C@@H](CO)O2)cc1F", "note": "[D-D4FC]", "values": [
      {"measurement": "activity against AZT/3TC-resistant virus", "setting": "AZT/3TC-resistant virus", "result": "activity against AZT/3TC-resistant virus"}
    ]},
    {"molecule": "CC[C@H]1C(=O)Nc2ccc(F)cc2N1C(=O)OC(C)C", "note": "[GW-420867X]", "values": [
      {"measurement": "greater activity than HBY097", "setting": "HIV; relative to HBY097", "result": 25, "unit": "fold"},
      {"measurement": "activity against viruses containing the K103N mutation / K103N mutants", "setting": "[2]", "result": "active against K103N mutants"}
    ]},
    {"molecule": "CC(C)C[C@@H](NC(=O)[C@@H]1CCCN1C(=O)CNC(=O)c1ccc(N)cc1)C(=O)N[C@H](C)C(=O)NO", "note": "[MMP inhibitor I] (H-[4Abz]GP[dL][dA]-{NHOH})", "values": [
      {"measurement": "IC50", "setting": "MMP-1", "result": 1, "unit": "µM"},
      {"measurement": "IC50", "setting": "MMP-8", "result": 1, "unit": "µM"},
      {"measurement": "IC50", "setting": "MMP-9", "result": 30, "unit": "µM"},
      {"measurement": "IC50", "setting": "MMP-3", "result": 150, "unit": "µM"}
    ]},
    {"molecule": "C[C@H](Sc1nc(N)cc(Cl)n1)c1cc2ccoc2cn1", "note": "[PNU-142721]", "values": [
      {"measurement": "greater activity than its predecessor delavirdine", "setting": "HIV; relative to delavirdine", "result": "20- to 50 fold"},
      {"measurement": "activity against viruses containing the K103N mutation / K103N mutants", "setting": "[2]", "result": "active against K103N mutants"}
    ]},
    {"molecule": "Nc1ccn([C@H]2CO[C@@H](CO)S2)c(=O)n1", "note": "[dOTC]", "values": [
      {"measurement": "activity against lamivudine-resistant isolates", "setting": "[3]", "result": "retains activity"}
    ]},
    {"molecule": "contortrostatin", "values": [
      {"measurement": "inhibition of M24 cell adhesion to laminin", "setting": "[4]; laminin", "result": "not"},
      {"measurement": "inhibition of M24 cell adhesion to type I collagen, vitronectin, and fibronectin", "setting": "[4]; type I collagen, vitronectin, fibronectin", "result": "inhibit"},
      {"measurement": "inhibition of lung colonization of M24 cells", "setting": "M24 cells", "result": "inhibits"}
    ]},
    {"molecule": "B1", "values": [
      {"measurement": "inhibition of angiogenesis", "setting": "angiogenesis", "result": "potent inhibitors"}
    ]}
  ]
}
